Results from ChEMBL document CHEMBL1201862, “PubChem BioAssay data set” (2004).
Values joined by “and” are separate entries in the source; they are usually repeats but may differ in a detail not shown here. Equal values may be shown once.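 Briefly, cells in 96-well plates were exposed to five compound concentrations for 48 h, and endpoints were estimated by linear interpolation. GI50 is the concentration that inhibits growth by half.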 Active and inactive are the calls of the source. Rule as the data show it: active = GI50 up to about 1.1 µM and inactive = higher.

Legend:
Assay in all cases: NCI-60 cell line screen, 48 h
HCT-15 = tested on: HCT-15
NCI/ADR-RES = tested on: NCI/ADR-RES
COLO 205 = tested on: COLO 205
A549 = tested on: A549
UACC-257 = tested on: UACC-257
CAKI-1 = tested on: CAKI-1
RPMI-8226 = tested on: RPMI-8226
HCT-116 = tested on: HCT-116
ACHN = tested on: ACHN
MDA-MB-435 = tested on: MDA-MB-435
OVCAR-3 = tested on: OVCAR-3
U-251 = tested on: U-251
KM12 = tested on: KM12
HCC 2998 = tested on: HCC 2998
SF-295 = tested on: SF-295
SK-MEL-5 = tested on: SK-MEL-5
SN12C = tested on: SN12C
EKVX = tested on: EKVX
DU-145 = tested on: DU-145
MOLT-4 = tested on: MOLT-4
M14 = tested on: M14
HT-29 = tested on: HT-29
OVCAR-5 = tested on: OVCAR-5
CCRF-CEM = tested on: CCRF-CEM
SK-MEL-28 = tested on: SK-MEL-28
MCF7 = tested on: MCF7
HOP-92 = tested on: HOP-92
786-0 = tested on: 786-0
SW-620 = tested on: SW-620
UO-31 = tested on: UO-31
MDA-MB-231 = tested on: MDA-MB-231
IGROV-1 = tested on: IGROV-1
UACC-62 = tested on: UACC-62
TK-10 = tested on: TK-10
SK-OV-3 = tested on: SK-OV-3
K562 = tested on: K562
HL-60 = tested on: HL-60
SNB-19 = tested on: SNB-19
SK-MEL-2 = tested on: SK-MEL-2
LOX IMVI = tested on: LOX IMVI
OVCAR-8 = tested on: OVCAR-8
NCI-H522 = tested on: NCI-H522
PC-3 = tested on: PC-3
HOP-62 = tested on: HOP-62
Hs-578T = tested on: Hs-578T
NCI-H23 = tested on: NCI-H23
SR = tested on: SR
OVCAR-4 = tested on: OVCAR-4
NCI-H460 = tested on: NCI-H460
Malme-3M = tested on: Malme-3M
T47D = tested on: T47D
SF-268 = tested on: SF-268
MDA-N = tested on: MDA-N
RXF 393 = tested on: RXF 393
NCI-H226 = tested on: NCI-H226
SF-539 = tested on: SF-539
A498 = tested on: A498
SNB-75 = tested on: SNB-75

CC(Nc1n[nH]c(=O)c2c1nnn2Cc1ccccc1)c1ccccc1 (configuration not stated)
GI50 (HCT-15): > 100 µM | GI50 (NCI/ADR-RES): > 100 µM (inactive) and 57.8 µM (inactive) | GI50 (COLO 205): 77.4 µM (inactive) and 96.2 µM (inactive) | GI50 (A549): 23.8 µM (inactive) and 36 µM (inactive) | GI50 (UACC-257): 50.6 µM (inactive) and 71 µM (inactive) | GI50 (CAKI-1): 18.6 µM (inactive) and 34.1 µM (inactive) | GI50 (RPMI-8226): 72.8 µM (inactive) | GI50 (HCT-116): 24.3 µM (inactive) and 27.5 µM (inactive) | GI50 (ACHN): 52.7 µM (inactive) | GI50 (MDA-MB-435): 17.3 µM (inactive) and 22.3 µM (inactive) | GI50 (OVCAR-3): > 100 µM (inactive) and 53.5 µM (inactive) | GI50 (U-251): 26.1 µM (inactive) and 37.1 µM (inactive) | GI50 (KM12): > 100 µM (inactive) | GI50 (HCC 2998): > 100 µM (inactive) | GI50 (SF-295): 34.4 µM (inactive) and 17.8 µM (inactive) | GI50 (SK-MEL-5): 18.8 µM (inactive) and 21.5 µM (inactive) | GI50 (SN12C): > 100 µM (inactive) | GI50 (EKVX): > 100 µM (inactive) | GI50 (DU-145): > 100 µM (inactive) | GI50 (MOLT-4): 56.9 µM (inactive) and 37.2 µM (inactive) | GI50 (M14): > 100 µM (inactive) | GI50 (HT-29): 12.2 µM (inactive) | GI50 (OVCAR-5): > 100 µM (inactive) | GI50 (CCRF-CEM): > 100 µM (inactive) | GI50 (SK-MEL-28): > 100 µM (inactive) and 55.1 µM (inactive) | GI50 (MCF7): 31.9 µM (inactive) and 29.1 µM (inactive) | GI50 (HOP-92): 22.8 µM (inactive) and 23.9 µM (inactive) | GI50 (786-0): 16.5 µM (inactive)

O=c1[nH]c(=O)n(COCCO)cc1-c1ccccc1
GI50 (HCT-15): > 100 µM | GI50 (SW-620): > 100 µM (inactive) | GI50 (NCI/ADR-RES): > 100 µM (inactive) | GI50 (UO-31): > 100 µM (inactive) | GI50 (COLO 205): > 100 µM (inactive) | GI50 (MDA-MB-231): > 100 µM (inactive) | GI50 (A549): > 100 µM (inactive) | GI50 (UACC-257): > 100 µM (inactive) | GI50 (IGROV-1): > 100 µM (inactive) | GI50 (CAKI-1): > 100 µM (inactive) | GI50 (RPMI-8226): > 100 µM (inactive) | GI50 (UACC-62): > 100 µM (inactive) | GI50 (TK-10): > 100 µM (inactive) | GI50 (HCT-116): > 100 µM (inactive) | GI50 (SK-OV-3): > 100 µM (inactive) | GI50 (K562): > 100 µM (inactive) | GI50 (HL-60): > 100 µM (inactive) | GI50 (ACHN): > 100 µM (inactive) | GI50 (SNB-19): > 100 µM (inactive) | GI50 (SK-MEL-2): > 100 µM (inactive) | GI50 (LOX IMVI): > 100 µM (inactive) | GI50 (MDA-MB-435): > 100 µM (inactive) | GI50 (OVCAR-3): > 100 µM (inactive) | GI50 (U-251): > 100 µM (inactive) | GI50 (KM12): > 100 µM (inactive) | GI50 (OVCAR-8): > 100 µM (inactive) | GI50 (HCC 2998): > 100 µM (inactive) | GI50 (SF-295): > 100 µM (inactive) | GI50 (NCI-H522): > 100 µM (inactive) | GI50 (SK-MEL-5): > 100 µM (inactive) | GI50 (PC-3): > 100 µM (inactive) | GI50 (HOP-62): > 100 µM (inactive) | GI50 (Hs-578T): > 100 µM (inactive) | GI50 (NCI-H23): > 100 µM (inactive) | GI50 (SN12C): > 100 µM (inactive) | GI50 (EKVX): > 100 µM (inactive) | GI50 (DU-145): > 100 µM (inactive) | GI50 (MOLT-4): > 100 µM (inactive) | GI50 (M14): > 100 µM (inactive) | GI50 (HT-29): > 100 µM (inactive) | GI50 (SR): > 100 µM (inactive) | GI50 (OVCAR-5): > 100 µM (inactive) | GI50 (OVCAR-4): > 100 µM (inactive) | GI50 (NCI-H460): > 100 µM (inactive) | GI50 (CCRF-CEM): > 100 µM (inactive) | GI50 (Malme-3M): > 100 µM (inactive) | GI50 (SK-MEL-28): > 100 µM (inactive) | GI50 (MCF7): > 100 µM (inactive) | GI50 (T47D): > 100 µM (inactive) | GI50 (HOP-92): > 100 µM (inactive) | GI50 (SF-268): > 100 µM (inactive) | GI50 (MDA-N): > 100 µM (inactive) | GI50 (786-0): > 100 µM (inactive)

CNC(=O)NCCN1CC2CCC(CC2)C1
GI50 (HCT-15): > 10 µM | GI50 (SW-620): > 10 µM (inactive) | GI50 (NCI/ADR-RES): > 10 µM (inactive) | GI50 (UO-31): > 10 µM (inactive) | GI50 (COLO 205): > 10 µM (inactive) | GI50 (MDA-MB-231): > 10 µM (inactive) | GI50 (A549): > 10 µM (inactive) | GI50 (UACC-257): > 10 µM (inactive) | GI50 (IGROV-1): > 10 µM (inactive) | GI50 (CAKI-1): > 10 µM (inactive) | GI50 (RPMI-8226): > 10 µM (inactive) | GI50 (UACC-62): > 10 µM (inactive) | GI50 (TK-10): > 10 µM (inactive) | GI50 (HCT-116): > 10 µM (inactive) | GI50 (SK-OV-3): > 10 µM (inactive) | GI50 (K562): > 10 µM (inactive) | GI50 (RXF 393): > 10 µM (inactive) | GI50 (HL-60): > 10 µM (inactive) | GI50 (NCI-H226): > 10 µM (inactive) | GI50 (ACHN): > 10 µM (inactive) | GI50 (SNB-19): > 10 µM (inactive) | GI50 (SK-MEL-2): > 10 µM (inactive) | GI50 (LOX IMVI): > 10 µM (inactive) | GI50 (MDA-MB-435): > 10 µM (inactive) | GI50 (OVCAR-3): > 10 µM (inactive) | GI50 (U-251): > 10 µM (inactive) | GI50 (KM12): > 10 µM (inactive) | GI50 (OVCAR-8): > 10 µM (inactive) | GI50 (HCC 2998): > 10 µM (inactive) | GI50 (SF-295): > 10 µM (inactive) | GI50 (NCI-H522): > 10 µM (inactive) | GI50 (SK-MEL-5): > 10 µM (inactive) | GI50 (SF-539): > 10 µM (inactive) | GI50 (PC-3): > 10 µM (inactive) | GI50 (HOP-62): > 10 µM (inactive) | GI50 (Hs-578T): > 10 µM (inactive) | GI50 (NCI-H23): > 10 µM (inactive) | GI50 (SN12C): > 10 µM (inactive) | GI50 (EKVX): > 10 µM (inactive) | GI50 (DU-145): > 10 µM (inactive) | GI50 (MOLT-4): > 10 µM (inactive) | GI50 (M14): > 10 µM (inactive) | GI50 (HT-29): > 10 µM (inactive) | GI50 (SR): > 10 µM (inactive) | GI50 (OVCAR-4): > 10 µM (inactive) | GI50 (NCI-H460): > 10 µM (inactive) | GI50 (CCRF-CEM): > 10 µM (inactive) | GI50 (Malme-3M): > 10 µM (inactive) | GI50 (A498): > 10 µM (inactive) | GI50 (SK-MEL-28): > 10 µM (inactive) | GI50 (MCF7): > 10 µM (inactive) | GI50 (T47D): > 10 µM (inactive) | GI50 (SF-268): > 10 µM (inactive) | GI50 (MDA-N): > 10 µM (inactive) | GI50 (SNB-75): > 10 µM (inactive) | GI50 (786-0): > 10 µM (inactive)
